Measured values taken from patent publication US20130296346A1, “DIPHENYL-AMINE DERIVATIVES: USES, PROCESS OF SYNTHESIS AND PHARMACEUTICAL COMPOSITIONS” (Faes Farma, S.A., priority 2010, published 2013).

How the values were obtained:
[1] = system: colorectal cancer cells from patients with Kras mutation; test: Mutated Kras colon cancer orthotopic animal model; format: in vivo, mice; settings: compared with vehicle control, FIG. 4A
Description: Using an animal model based on colorectal cancer cells from patients with Kras mutation, implanted on mice in the colon area (Yao, M. Cyclooxygenase-2 selective inhibition with NS-398 suppresses proliferation and invasiveness and delays liver metastasis in colorectal cancer. Br. J. Cancer, 2004 Feb. 9; 90(3):712-9), the effects of Compound 3 were tested.

[2] = system: TNFr; test: TNF-R transfectant, NF-kB reporter gene (secreted phosphatase); format: cell-based
Text: (§1) The secreted phosphatase sPase was used as reporter for its ability to process the luminiscent or colorimetric substrates from the culture based in the hydrolysis of substrates chemically similar to nitrophenol phosphate. Five generation of transfectants were developed as described: • 1. IL-4R. Chains of Type II IL-4-r, which is the common one within non-haematopoietic cells were transfected, as well as STAT6 which the key molecule in the nuclear signalling route by IL-4-r, and finally a reporter gene to measure the response to STAT6 was introduced. Endogenously, cells had Janus Associated Kinase 1 (JAK1) which was previously known to be associated with STAT6 via p62/aPKC. • 2. IL-6R. Chains of IL-6R were transfected and a reporter gene able to measure the response to STAT3 was introduced. As it is well known, STAT3 is a transductional molecule and a nuclear factor physiologically produced in the standard responses IL-6/IL-6R. • 3. TNF-R. In this case, a reporter gene able to measure the response to NF-kB was introduced, as this is the transductional molecule and the nuclear factor physiologically produced in response to TNF-alpha. […] LPS-Receptor complex represented by TLR4/MD2/CD14. Reporter genes with elements of response to NFkB were used as in the previous case, but the selectivity was achieved by the co-transfection of components of the LPS-R complex. The LPS is captured from the serum through the union to one plasma protein known as LBP, which transfers the LPS to the membrane protein CD14. The LBP inclusion accounts for an increase of 1000-fold the sensitivity versus media or cultures LBP-frees. The molecule CD14 is not an LPS-receptor but a module of the receptor complex which captures LBP, allowing the transference of LPS in the cellular surface to MD2. CD14 has not a cytoplasmic tail and it is not able to be a signal transducer but it substantially increases the sensitivity of the system. In a similar way, MD2 is not a signal transducer but the combination of CD14 and MD2 allows the increase of the sensitivity by 10000-fold. • 5. IL-1R. Reporter genes with elements of response to NFkB were used as in the previous case, but the selectivity was achieved by the expression of components belonging to the receptor complex IL-1R. IL-1R belongs to a receptors superfamily which uses TIR transduction domains (Toll-like IL-1R). It is known that the IL-1R route activates mitogen-activated protein kinases (MAPK) of JNK type which in turn generate nuclear factors transcriptionally active as AP-1. The reporter gene includes NFkB and AP-1 sites chained in order to simulate the physiological situation.

[3] = system: IL6r; test: IL-6R transfectant, STAT3 reporter gene (secreted phosphatase); format: cell-based
Text: as §1

[4] = system: IL4r; test: IL-4R transfectant, STAT6 reporter gene (secreted phosphatase); format: cell-based
Text: as §1

[5] = system: B16-F1; test: In vitro cytotoxicity, SRB method; format: cell-based; settings: Mus musculus, B16-F1 melanoma, 72 hours
Description: (§2) SRB method was followed (Wieland, V., et al. Sulforhodamine B Assay and Chemosensitivity. Chemosensitivity, volume 1, In Vitro Assays. Methods in Molecular Medicine. Edited by Rosalyn D. Blumenthal. Humana Press, Totowa, N.J., 2005).
(§3) Cells were seeded in microplates of 96 wells. In each well, according to the cell type, specific number of cells were seeded in 200 microliters. In these conditions, cells were cultured for 3 days, with the aim of reaching their exponential phase of growing to assay the product cytotoxicity. The product concentrations were prepared just the day of treatments, after thawing the stock solutions (10 mM). After harvesting the microplate with the seeded cells for 3 days, the culture medium was discarded and replaced by 150 μl of fresh medium in each well. This was followed by the addition of 50 μl of the corresponding product dilution so as the final concentration in the final volume of 200 microliters in each well was the one scheduled. The products, at the assayed concentrations, were in contact with the cell growing monolayer for 72 hours and incubated at 37° C., 5% CO2. Finally, cells were growth arrested adding […] of cold TCA (Trichloroacetic acid) 50%, (final concentration of 10% in the well). Microplate was then maintained at 4° C. for over 60 min to fix cellular proteins till initiation of washing and staining with SRB.
(§4) Cell viability (%)=(Cell population of the treated well/Maximum cell population of the Standard curve)×100.
(§5) Mean viability values for each concentration were calculated from the values obtained for each well in which that concentration was assayed.

[6] = system: HCT116; test: In vitro cytotoxicity, SRB method; format: cell-based; settings: Homo sapiens, HCT-116, HCT116 colon cancer, 72 hours
Description: as §2, §3, §4, §5

[7] = system: HepG2; test: In vitro cytotoxicity, SRB method; format: cell-based; settings: Homo sapiens, HepG2 hepatoma, 72 hours
Description: as §2, §3, §4, §5

[8] = system: Malm-3M; test: In vitro cytotoxicity, SRB method; format: cell-based; settings: Malm-3M melanoma, 72 hours
Description: as §2, §3, §4, §5

[9] = system: NCI-H460; test: In vitro cytotoxicity, SRB method; format: cell-based; settings: Homo sapiens, NCI-H460 lung, 72 hours
Description: as §2, §3, §4, §5

[10] = system: SF268; test: In vitro cytotoxicity, SRB method; format: cell-based; settings: Homo sapiens, SF-268, SF268 glioblastoma, 72 hours
Description: as §2, §3, §4, §5

[11] = system: SW260; test: In vitro cytotoxicity, SRB method; format: cell-based; settings: SW260 colon cancer, 72 hours
Description: as §2, §3, §4, §5

[12] = Cytotoxicity for human non-tumoral cells, XTT; format: cell-based; settings: HUVEC cells (primary, from human cords)
Description: (§6) The cytotoxicity of the compounds for human non-tumoral cells was studied in fibroblasts, HUVEC cells and resting PBLs (Peripheral Blood lymphocytes).
HUVEC cells were obtained by treating human cords with collagenase type I, […] in Hank's medium incubating 20 minutes at 37° C. Cells were collected afterwards and cultivated in medium M199 with supplements of 20% FBS, 1% P/S and 25 mg/500 ml of medium ECGF, Cells were grown on a 0.2% gelatin matrix.
(§7) Distinct amounts of exponentially growing cells were seeded in 96-well flat-bottomed microtiter plates in a final volume of 100 μl were seeded in 96-well flat-bottomed microtiter plates, and incubated at 37° C. in a humidified atmosphere of 5% CO2/95% air for 24 h to allow the cells attach to the plates. Then, cells were incubated with different concentrations of the assayed compound at 37° C. under the 5% CO2/95% air atmosphere for 72 h. Cell proliferation was quantified using the XTT cell proliferation kit (Roche Molecular Biochemicals, Mannheim, Germany) following the manufacturer's instructions. Briefly, a freshly prepared mixture solution (50 μl) of XTT labelling reagent and PMS (N-methyldibenzopyrazine methyl sulfate) electron coupling reagent was added to each well. The resulting mixtures were further incubated for 4 h in a humidified atmosphere (37° C., 5% CO2), and the absorbance of the formazan product generated was measured with a microtiter plate reader at a test wavelength of 490 nm and a reference wavelength of 655 nm. The IC50 (50% inhibitory concentration) was then calculated as the drug concentration causing a 50% inhibition of cell proliferation. Data are shown as mean values of four independent experiments each performed in triplicate.

[13] = Cytotoxicity for human non-tumoral cells, XTT; format: cell-based; settings: Fibroblasts
Description: as §6, §7

[14] = system: resting human PBLs; test: Apoptosis of resting human PBLs; format: cell-based
Description: To isolate normal peripheral blood lymphocytes (PBLs), mononuclear cells were obtained from fresh human peripheral blood from healthy volunteers by centrifugation on Ficoll-Hypaque density gradients, washed with phosphate-buffered saline (PBS), and resuspended in RPMI-1640 medium containing 10% (v/v) heat-inactivated FBS, 2 mM L-glutamine, 100 U/ml penicillin, and 100 μg/ml streptomycin as described (Cabaner et al. Br. J. Pharmacol 127:813-825.1999). Monocytes were depleted by culture dish adherence after overnight incubation. Nonadherent cells (lymphocytes) were washed with PBS and collected. PBL preparations were typically 70-75% CD3^+, 24-29% CD 19^+, and less than 0.4% CD 14^+.

[15] = system: haematological cancer cell lines; test: Apoptosis induction in haematological cancer cell lines; format: cell-based
[16] = system: TNF-α; test: Murine endotoxemia (LPS i.p.), blood serum TNF-α; format: in vivo, mice; settings: orally 100 mg/kg; 90 min after LPS 1 mg/kg i.p.
Description: MATERIAL AND METHODS: Male CD1 mice, weighing between 30 and 35 g and housed under controlled standard conditions, were used. These animal fasted (for 14-16 hours; 12 per group; 6 per cage≅500 cm^2), with a nutritional solution made of Saccharose (8%) and NaCl (0.2%), ad libitum. Oral test treatments were given in suspensions (vehicle: Tween 80 0.1%—NaCl 0.9%), in a 10 ml/kg volume ratio. One hour later, murine endotoxemia was induced by intraperitoneal injection of Lipopolysaccharides from Escherichia coli serotype 055:B5 (Sigma L-2880), at 1 mg/kg dose and in a 10 ml/kg volume ratio, dissolved in sterile saline. Ninety minutes after LPS injection (i.p.), under Isoflurane anaesthesia, 0.5-0.8 ml of blood was extracted by cardiac punction; the blood sample was centrifuged (6000 rpm; 10 minutes; 4° C.) and 2 serum samples were taken and kept frozen at −70° C. until serum TNF-α concentrations were measured (EIA: Mouse TNF/TNF SF1A Quantikine from R&D Systems).

[17] = system: IL6; test: Blood serum IL6 in mice treated with parathyroid hormone; format: in vivo; settings: orally 25 mg/kg; pTH-rp treated mice
Description: MATERIAL AND METHODS: Male CD1 mice, between 5 and 7 week and housed under controlled standard conditions, were used. These animal fasted (for 14-16 hours; 12 per group; 6 per cage≅1100 cm^2), with solid and liquid food ad libitum. During 5 days, the animals were treated with 8 i.p. administration of pTH-rp (1-34, human) 15 microgram/0.1 ml/injection
Oral test treatments were given in suspensions (vehicle: Tween 80 0.1%—NaCl 0.9%), in a 10 ml/kg volume ratio., one hour later of pTH injection.
Two hours after last pTH administration and under Isoflurane anaesthesia, 0.5-0.8 ml of blood was extracted by cardiac punction; the blood sample was centrifuged (6000 rpm; 10 minutes; 4° C.) and 2 serum samples were taken and kept frozen at −70° C. until serum IL6 concentrations were measured (EIA: reference number 555240. BD Bioscience).

## O=c1[nH]cc(F)c(=O)[nH]1 [Compound 5-FU, 5-F uracil, reference compound]
[1]
  tumour volume of human colorectal cancer: not active in the tested experimental conditions

## C(CCCNCc1cccs1)=C(c1ccccc1)c1ccccc1.Cl [Compound 6, (5,5-diphenyl-pent-4-enyl)-thiophen-2-ylmethyl-amine hydrochloride]
[2]
  Inhibition of TNFr: Inhibition of TNFr total
[3]
  Inhibition of IL6r: Inhibition of IL6r total
[4]
  Inhibition of IL4r: Inhibition of IL4r total
[5]
  IC50: 16 µM
[6]
  IC50: 8.1 µM
[7]
  IC50: 5 to 50 µM
[8]
  IC50: 13 µM
[9]
  IC50: 17 µM
[10]
  IC50: 29 µM
[11]
  IC50: 13 µM
[12]
  IC50 at 72 h: 27 µM
[13]
  IC50 at 72 h: 24 µM
[14]; 10^−4 M
  % Apoptosis PBLs: 7.2%
[14]; 10^−5 M
  % Apoptosis PBLs: 4.1%
[14]; even at 10^−4 M
  effect on PBLs: hardly affect PBLs
[15]
  concentration inducing apoptosis in haematological cancer cell lines: ~10^−6 M
other
  melting point: 161 to 161.6 °C

## C(CCCNCc1ccco1)=C(c1ccccc1)c1ccccc1.Cl [Compound 8, (5,5-diphenyl-pent-4-enyl)furan-2-ylmethylamine hydrochloride]
[2]
  Inhibition of TNFr: Inhibition of TNFr total
[3]
  Inhibition of IL6r: Inhibition of IL6r total
[4]
  Inhibition of IL4r: Inhibition of IL4r total
[16]
  reduction of blood serum levels of TNF-α in relation to vehicle group: 37.7%
[5]
  IC50: 14 µM
[6]
  IC50: 5 to 50 µM
[7]
  IC50: 5 to 50 µM
[8]
  IC50: 16 µM
[9]
  IC50: 5 to 50 µM
[10]
  IC50: 5 to 50 µM
[11]
  IC50: 5 to 50 µM
other
  melting point: 139 to 141.3 °C

## C(CCCNCc1nc2ccccc2[nH]1)=C(c1ccccc1)c1ccccc1.Cl [Compound 11, (1H-benzoimidazol-2-ylmethyl)-(5,5-diphenyl-pent-4-enyl)amine hydrochloride]
[2]
  Inhibition of TNFr: Inhibition of TNFr total
[3]
  Inhibition of IL6r: Inhibition of IL6r total
[4]
  Inhibition of IL4r: Inhibition of IL4r total
[16]
  reduction of blood serum levels of TNF-α in relation to vehicle group: 35.42%
other
  melting point: 251 to 253.8 °C

## Cl.FC(F)(F)Oc1cccc(CNCCCCC=C(c2ccccc2)c2ccccc2)c1 [Compound 15, (6,6-diphenyl-hex-5-enyl)-(3-trifluoromethoxybenzyl)amine hydrochloride]
[17]
  reduction of blood serum levels of IL6 in relation to vehicle group: 64.58%
other
  melting point: 96.6 to 98.5 °C
